Reference: publication PMC10698726 (Molecular Pharmaceutics, 2023)
Where two headings read alike, the source gives them in different places.

What was measured:
OCT2 = target: T1, OCT2 (Homo sapiens, UniProt O15244); assay: Inhibition of model substrate uptake in OCT2-overexpressing HEK293 cells; settings: for IC50: IC50 [μM], OCT2, Table 1; for inhibition at 5 min, 20 μM / selectivity ratio at 5 min: human, OCT2-overexpressing HEK293 cells; for inhibition at 5 min, 20 μM: OCT2, 20 μM inhibitor; for selectivity ratio at 5 min: pH 7.4
T1 sequence (O15244 1-555): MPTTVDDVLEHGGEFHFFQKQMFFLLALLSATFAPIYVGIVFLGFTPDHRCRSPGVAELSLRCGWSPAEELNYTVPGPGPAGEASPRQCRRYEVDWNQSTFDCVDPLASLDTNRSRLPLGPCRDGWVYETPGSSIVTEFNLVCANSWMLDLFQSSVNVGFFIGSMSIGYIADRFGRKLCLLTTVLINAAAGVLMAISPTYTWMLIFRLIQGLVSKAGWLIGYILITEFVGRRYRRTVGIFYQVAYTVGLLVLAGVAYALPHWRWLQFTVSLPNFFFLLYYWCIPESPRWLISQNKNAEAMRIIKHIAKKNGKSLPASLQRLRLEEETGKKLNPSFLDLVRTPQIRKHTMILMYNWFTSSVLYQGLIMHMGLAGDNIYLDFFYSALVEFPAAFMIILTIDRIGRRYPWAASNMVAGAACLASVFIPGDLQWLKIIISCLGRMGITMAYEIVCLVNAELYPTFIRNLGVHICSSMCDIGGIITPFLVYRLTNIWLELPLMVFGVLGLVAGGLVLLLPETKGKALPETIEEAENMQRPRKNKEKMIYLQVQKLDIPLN
Description: (§1) All experiments were carried out in transporter-overexpressing HEK293 cells. OCT1-, OCT2-, NET-, DAT-, and SERT-overexpressing cells as well as the empty-vector transfected control cell line were generated as described earlier,[26]−[28] whereas the OCT3-overexpressing HEK293 cells were generous gift of from Drs. Koepsell and Gorbulev (University of Würzburg, Germany). All cells were cultivated in Dulbecco’s modified Eagle’s medium (DMEM) supplemented with 10% (v/v) FCS, penicillin (100 U/mL), and streptomycin (100 μg/mL) and kept in culture for no longer than 30 passages.
(§2) As for the transport experiments, 300,000 HEK293 cells were plated in poly-D-lysine-coated 24-well plates 2 days ahead of the experiment. On every plate, two wells of empty vector (EV)-transfected cells were used as a control to account for the passive influx of the model substrate, and two wells of transporter-overexpressing cells were used to determine the noninhibited uptake of the model substrate. Cells were initially washed once with 37 °C HBSS+ and then incubated with 2 μM model substrate (0.2 μM for MPP^+ uptake by MATs) with and without 20 μM inhibitor for 5 min. For concentration-dependent inhibition experiments, the cells were incubated with increasing inhibitor concentrations. The incubation was terminated by aspiration of the buffer before cells were washed twice with ice-cold HBSS+ and lysed in 80% acetonitrile. Cell lysates were transferred into a black 96-well plate for the fluorescence measurement of ASP^+ or used for sample preparation for LC–MS/MS analysis. […] Fluorescence quantification was performed in technical duplicates.
(§3) Transporter-mediated net uptake was calculated as the difference between uptake in transporter-overexpressing cells and that in the empty-vector-transfected control. […] Vmax is the maximum transport velocity, while Km is defined as the substance concentration that is required to reach half of vmax. The ratio of vmax over Km is termed intrinsic clearance Clint. For inhibition experiments, the transport activity was calculated by using the following equation [drawing 1]
(§4) SubstrateEV refers to the passive uptake of model substrates into the control cells and substratenoninhibited is the uptake in transporter-overexpressing cells without the presence of any inhibitor. The percent inhibition values are then calculated as described in the following [drawing 2]
(§5) For concentration inhibition experiments, the transporter activity was plotted against the log10 of inhibitor concentrations, and the data were fitted by the following equation to determine IC50 values [drawing 3]
(§6) Y refers to the transporter activity, whereas Ymax is the maximum and Ymin is the minimal transporter activity. X is the log10 of inhibitor concentrations, IC50 is the half-maximal inhibitory concentration, and hill slope is the slope factor.

OCT3 = target: T2, OCT3 (Homo sapiens, UniProt O75751); assay: Inhibition of model substrate uptake in OCT3-overexpressing HEK293 cells; format: cell-based; settings: 20 μM inhibitor; for inhibition at 20 µM: 5 min
T2 construct: expressed in transfected cells; host or cells: HEK293
T2 sequence (O75751 1-556): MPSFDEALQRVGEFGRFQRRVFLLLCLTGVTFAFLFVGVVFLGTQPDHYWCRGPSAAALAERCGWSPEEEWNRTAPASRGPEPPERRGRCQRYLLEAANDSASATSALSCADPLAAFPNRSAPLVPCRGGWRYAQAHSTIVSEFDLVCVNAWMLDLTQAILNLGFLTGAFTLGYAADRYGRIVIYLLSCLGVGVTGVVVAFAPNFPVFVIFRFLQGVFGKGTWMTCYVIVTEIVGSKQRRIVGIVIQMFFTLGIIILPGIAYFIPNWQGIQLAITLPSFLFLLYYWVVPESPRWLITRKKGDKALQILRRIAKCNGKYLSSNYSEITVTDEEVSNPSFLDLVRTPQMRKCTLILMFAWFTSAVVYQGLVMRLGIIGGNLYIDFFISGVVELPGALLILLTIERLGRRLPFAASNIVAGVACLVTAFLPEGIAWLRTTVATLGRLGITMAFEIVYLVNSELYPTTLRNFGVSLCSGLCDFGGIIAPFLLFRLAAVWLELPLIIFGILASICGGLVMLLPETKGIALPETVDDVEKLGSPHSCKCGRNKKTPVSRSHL
Description: as §1, §2, §3, §4, §5, §6

OCT1 = target: T3, OCT1 (Homo sapiens, UniProt O15245); assay: Inhibition of model substrate uptake in OCT1-overexpressing HEK293 cells; format: cell-based; design: expressed in transfected cells; host or cells: HEK293; settings: for IC50: OCT1, Table 1, read-out: IC50; for inhibition at 5 min, 20 μM / selectivity ratio at 5 min: human, OCT1-overexpressing HEK293 cells; for inhibition at 5 min, 20 μM: 20 μM inhibitor
T3 sequence (O15245 1-554): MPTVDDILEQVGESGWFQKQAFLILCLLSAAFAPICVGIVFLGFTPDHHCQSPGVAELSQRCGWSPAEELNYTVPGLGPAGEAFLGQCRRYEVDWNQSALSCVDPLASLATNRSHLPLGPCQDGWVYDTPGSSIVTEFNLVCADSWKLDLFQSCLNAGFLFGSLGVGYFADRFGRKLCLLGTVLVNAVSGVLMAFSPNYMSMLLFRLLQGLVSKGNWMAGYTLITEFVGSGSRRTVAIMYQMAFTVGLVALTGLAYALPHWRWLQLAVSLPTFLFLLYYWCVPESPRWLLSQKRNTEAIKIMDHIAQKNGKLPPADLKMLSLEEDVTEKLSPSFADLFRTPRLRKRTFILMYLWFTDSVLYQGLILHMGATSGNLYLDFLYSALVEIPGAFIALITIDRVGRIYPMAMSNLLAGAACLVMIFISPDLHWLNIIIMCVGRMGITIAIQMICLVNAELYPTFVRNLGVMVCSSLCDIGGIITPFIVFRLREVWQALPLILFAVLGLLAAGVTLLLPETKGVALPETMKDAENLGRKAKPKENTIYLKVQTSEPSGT
Description: Koepsell and Gorbulev (University of Würzburg, Germany).
Fluorescence quantification was performed in technical duplicates.

[1] = pH 7.4, probe (S,S)-ethambutol (2 μM), (S,S)-Ethambutol inhibition [%], 2 μM (S,S)-ethambutol
[2] = pH 7.4, probe ASP+ (2 μM), ASP+ inhibition [%], 2 μM ASP+
[3] = pH 7.4, probe N-ethyllidocaine (2 μM), N-Ethyllidocaine inhibition [%], 2 μM N-ethyllidocaine
[4] = HEK293, 5 min, read-out: (S)-Zolmitriptan inhibition [%], OCT3, 2 μM (S)-zolmitriptan
[5] = HEK293, 5 min, read-out: (S,S)-Ethambutol inhibition [%], OCT3, 2 μM (S,S)-ethambutol
[6] = HEK293, OCT3, 2 μM ASP+, read-out: ASP+ inhibition [%]
[7] = pH 7.4, probe (S,S)-ethambutol (2 μM), (S,S)-Ethambutol inhibition [%], OCT1, 2 μM (S,S)-ethambutol
[8] = pH 7.4, probe ASP+ (2 μM), OCT1, 2 μM ASP+, mean of three experiments, read-out: ASP+ inhibition [%]
[9] = pH 7.4, probe sumatriptan (2 μM), OCT1, 2 μM sumatriptan, read-out: Sumatriptan inhibition [%]

IC50 (OCT2) | inhibition at 5 min, 20 μM (OCT2; [1]) | inhibition at 5 min, 20 μM (OCT2; [2]) | inhibition at 5 min, 20 μM (OCT2; [3]) | inhibition at 20 µM (OCT3; [4]) | inhibition at 20 µM (OCT3; [5]) | inhibition at 20 µM (OCT3; [6]) | IC50 (OCT1) | inhibition at 5 min, 20 μM (OCT1; [7]) | inhibition at 5 min, 20 μM (OCT1; [8]) | inhibition at 5 min, 20 μM (OCT1; [9]) | stereoselective inhibition of OCT3 (in words) (OCT3; ethambutol and zolmitriptan as substrates) | x-fold Stereoselectivity (OCT1; OCT1, ratio of the IC50 values of the two enantiomers of the drug) | SMILES | selectivity ratio at 5 min (OCT2) | selectivity ratio at 5 min (OCT1; pH 7.4, OCT1, ratio of the IC50 values of the two enantiomers of the drug, read-out: x-fold Stereoselectivity) | selectivity ratio at 5 min (OCT1; pH 7.4, OCT1, Table S5, ratio of the IC50 values of both isomers, label = isomer named in the cell (as a rule the one with the higher IC50), read-out: Stereoselectivity (x-fold for the named isomer))
21.4 µM | 56.3% | 59.5% | 64.4% | 51.8% | 50.3% | 31.4% | 10.2 µM | 63.8% | 32.8% | 59.2% |  |  | CCCCN1CCCC[C@@H]1C(=O)Nc1c(C)cccc1C [(R)-Bupivacaine] |  |  | 
 |  |  |  |  |  |  |  |  |  |  | stereoselective inhibition | 1.2 fold | CCCCN1CCCCC1C(=O)Nc1c(C)cccc1C (stereo not shown) [Bupivacaine] | 2.3 | 1.8 | 
48.4 µM | 38.5% | 43.1% | 50.2% | 37.2% | 33.4% | 24.3% | 18.7 µM | 50.6% | 23.5% | 43.9% |  |  | CCCCN1CCCC[C@H]1C(=O)Nc1c(C)cccc1C [(S)-Bupivacaine] | 2.3 |  | 1.8
 | 7% | 11.5% | 7.9% | -1.9% | 3.2% | 12.1% |  | 5.6% | 8.3% | -7.2% |  |  | CC(C)Cc1ccc([C@@H](C)C(=O)O)cc1 [(R)-Ibuprofen] |  |  | 
